What was measured:
[1] = target: T1, HER-2 (Homo sapiens, UniProt P04626); experiment: HER-2 Kinase Assay; type: biochemical; settings: for inhibition at 1 µM: test concentration of 1 μM; for IC50: value in parentheses
T1 construct: His6 with thrombin site (N); purchased Proqinase (Freiburg, Germany)
Summary of the method: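 Read-out was scintillation counting of 33P incorporated into biotinylated polyGluTyr captured on streptavidin plates. Reactions ran 1 h at 30 °C with GST-fused HER-2 residues 679–1255, 1 μM ATP, Mn2+ and Mg2+ at pH 7.5; data given as percent inhibition at 1 μM, with IC50 where determined.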

[2] = system: A375 malignant melanoma; experiment: Cell Proliferation Inhibition Assay, A375 (14C-thymidine); type: cell-based; settings: Homo sapiens, A-375
Description: (§1) Cell Proliferation Inhibition Assay
(§2) The ability of a test compound to inhibit unregulated cell proliferation may be determined by measuring incorporation of ^14C-labelled thymidine into newly synthesized DNA within cell lines derived from carcinomas originating from several tissues. Accordingly, the effect of a test compound on proliferation of cells with a variety of phenotypes may be determined.
(§3) Carcinoma cell lines used include the HeLa cervical adenocarcinoma from the American Type Culture Collection (ATCC Cat. #CCL2), A375 malignant melanoma (ATCC Cat. #CRL-1619), HCT-116 colon carcinoma (ATCC Cat. #CCL-247), SKBR3 breast carcinoma (ATCC Cat. #HTB-30) and BT474 breast carcinoma (ATCC Cat. #HTB-20).
(§4) The carcinoma cells were trypsinized and counted. The cells (3000-8000 count) were added to each well of a 96-well CytoStar tissue culture treated scintillating microplate (Amersham #RPNQ0160) in complete medium (100 μL) and the plate was then incubated in complete medium for 24 hrs at 37° C. in an inert atmosphere containing 5% CO2.
(§5) Test compound (1 μL) in 100% DMSO was added to the plate test-wells with DMSO only added to control-wells. The plate was incubated in complete medium for a second 24 hr period at 37° C. in an atmosphere containing 5% CO2.
(§6) An aliquot of a solution of Methyl ^14C-thymidine (56 mC/mmol) (NEN #NEC568 or AMersham #CFA532) and complete medium (20 uL to provide 0.2 μCl/well) was then added to each well and the plate was incubated for a third 24 hr period at 37° C. in an atmosphere containing 5% CO2.
(§7) The plate contents were then discarded, the plate washed twice with PBS (200 μL) and then PBS (200 μL) was added to each well. The plate was sealed and the degree of methyl ^14C-thymidine incorporation was quantified on a Packard Top Count.
(§8) Cell proliferation of the Hela cell line was measured using the ATP-Lite method as described in the ATP Lite Kit (Perkin-Elmer Kit Number 6106941) or the C^14 method as described above. Cell proliferation of the other cell lines was measured using the C^14 method.

[3] = system: HCT-116 colon carcinoma; experiment: Cell Proliferation Inhibition Assay, HCT-116 (14C-thymidine); type: cell-based; settings: Homo sapiens, HCT-116 cell proliferation
Description: as §1, §2, §3, §4, §5, §6, §7, §8

[4] = target: T2, Lyn kinase (human) (Homo sapiens, UniProt P07948); experiment: Lyn Kinase Assay; type: biochemical; settings: test concentration of 2 μM; for % Inhibition (Lyn): 2 µM
T2 construct: purchased Upstate Biotechnology, Lake Placid, N.Y
T2 sequence (P07948 whole entry): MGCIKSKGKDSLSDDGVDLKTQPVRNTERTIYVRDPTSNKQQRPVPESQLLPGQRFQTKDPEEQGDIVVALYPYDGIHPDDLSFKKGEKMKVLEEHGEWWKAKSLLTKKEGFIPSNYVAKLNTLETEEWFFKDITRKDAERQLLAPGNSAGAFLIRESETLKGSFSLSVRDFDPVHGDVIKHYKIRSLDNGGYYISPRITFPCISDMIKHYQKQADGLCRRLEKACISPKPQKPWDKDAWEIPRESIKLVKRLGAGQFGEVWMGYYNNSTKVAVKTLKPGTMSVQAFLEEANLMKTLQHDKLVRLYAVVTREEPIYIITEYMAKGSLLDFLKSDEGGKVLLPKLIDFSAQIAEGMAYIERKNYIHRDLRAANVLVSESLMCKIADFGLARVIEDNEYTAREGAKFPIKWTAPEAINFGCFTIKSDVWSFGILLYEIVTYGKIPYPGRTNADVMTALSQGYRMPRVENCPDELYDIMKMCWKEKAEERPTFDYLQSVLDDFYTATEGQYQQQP
Summary of the method: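 Radiometric filter-binding assay with recombinant human Lyn, poly(Glu,Tyr) substrate (0.1 mg/mL final), 5 μM ATP plus γ-33P-ATP in MOPS pH 7.5/Mg acetate buffer; 40 min at 30 °C, stopped with phosphoric acid, counted by scintillation. Reported as percent inhibition at 2 μM, with IC50 (μM) where determined.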

T1 sequence (P04626 679-1255): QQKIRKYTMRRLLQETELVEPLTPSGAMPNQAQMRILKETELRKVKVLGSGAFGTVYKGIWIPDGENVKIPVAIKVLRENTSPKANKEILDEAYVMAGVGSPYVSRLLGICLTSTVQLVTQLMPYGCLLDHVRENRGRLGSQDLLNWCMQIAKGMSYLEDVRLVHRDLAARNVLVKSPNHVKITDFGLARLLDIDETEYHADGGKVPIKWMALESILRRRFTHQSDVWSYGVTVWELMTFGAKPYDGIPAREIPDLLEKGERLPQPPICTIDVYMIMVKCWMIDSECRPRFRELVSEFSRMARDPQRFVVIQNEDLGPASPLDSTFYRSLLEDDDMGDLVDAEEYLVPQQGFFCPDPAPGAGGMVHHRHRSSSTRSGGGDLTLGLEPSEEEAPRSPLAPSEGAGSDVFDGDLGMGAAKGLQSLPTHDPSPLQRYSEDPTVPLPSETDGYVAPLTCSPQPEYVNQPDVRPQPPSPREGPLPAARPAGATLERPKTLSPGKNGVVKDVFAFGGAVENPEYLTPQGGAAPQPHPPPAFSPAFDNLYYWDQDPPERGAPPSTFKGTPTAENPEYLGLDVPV

Row | SMILES | inhibition at 1 µM [1] [%] | IC50 [1] [µM] | IC50 [2] [µM] | IC50 [3] [µM] | inhibition at 2 µM [4] [%] | % Inhibition (Lyn) [4] [%]
1 | O=C(Nc1ccc(CN2CCOCC2)cc1)c1sc2ncnc3c2c1NC(=O)N3c1cccc(Br)c1 [Cpd 36, 5-(3-bromo-phenyl)-4-oxo-4,5-dihydro-3H-1-thia-3,5,6,8-tetraaza-acenaphthylene-2-carboxylic acid (4-morpholin-4-ylmethyl-phenyl)-amide] | 60 | 0.295 | 10 | 67.9 |  | 
2 | O=C(O)c1sc2ncnc3c2c1NC(=O)N3c1ccc(OCc2ccccn2)c(Cl)c1 [Cpd 38, 5-[3-chloro-4-(pyridin-2-ylmethoxy)-phenyl]-4-oxo-4,5-dihydro-3H-1-thia-3,5,6,8-tetraaza-acenaphthylene-2-carboxylic acid] | -7 |  | 100 | 100 | -16 | 
3 | COc1ccc(NC(=O)c2sc3ncnc4c3c2NC(=O)N4c2ccc(OCc3ccccn3)c(Cl)c2)cc1OC [Cpd 48, 5-[3-chloro-4-(pyridin-2-ylmethoxy)-phenyl]-4-oxo-4,5-dihydro-3H-1-thia-3,5,6,8-tetraaza-acenaphthylene-2-carboxylic acid (3,4-dimethoxy-phenyl)-amide] | 45 |  | 17.2 | 30.4 | 14 | 
4 | O=C(Nc1ccc(CN2CCOCC2)cc1)c1sc2ncnc3c2c1NC(=O)N3c1ccc(OCc2ccccn2)c(Cl)c1 [Cpd 52, 5-[3-chloro-4-(pyridin-2-ylmethoxy)-phenyl]-4-oxo-4,5-dihydro-3H-1-thia-3,5,6,8-tetraaza-acenaphthylene-2-carboxylic acid (4-morpholin-4-ylmethyl-phenyl)-amide] | 95 | 0.246 | 100 | 100 | 16.2 | 
5 | O=C(Nc1ccc(CN2CCCCC2)cc1)c1sc2ncnc3c2c1NC(=O)N3c1ccc2c(cnn2Cc2cccc(F)c2)c1 [Cpd 80, 5-[1-(3-fluoro-benzyl)-1H-indazol-5-yl]-4-oxo-4,5-dihydro-3H-1-thia-3,5,6,8-tetraaza-acenaphthylene-2-carboxylic acid (4-piperidin-1-ylmethyl-phenyl)-amide] |  | 0.121 | 10.1 | 14 |  | 
6 | O=C(Nc1ccc(CN2CCCCC2)cc1)c1sc2ncnc3c2c1NC(=O)N3c1ccc2c(ccn2Cc2cccc(F)c2)c1 [Cpd 87, 5-[1-(3-fluoro-benzyl)-1H-indol-5-yl]-4-oxo-4,5-dihydro-3H-1-thia-3,5,6,8-tetraaza-acenaphthylene-2-carboxylic acid (4-piperidin-1-ylmethyl-phenyl)-amide] |  | 0.15 | 6.79 | 3.69 |  | 
7 | CC(C)(C)OC(=O)N1CCC(NC(=O)c2sc3ncnc4c3c2NC(=O)N4c2ccc3c(ccn3Cc3cccc(F)c3)c2)CC1 [Cpd 91, 4-({5-[1-(3-fluoro-benzyl)-1H-indol-5-yl]-4-oxo-4,5-dihydro-3H-1-thia-3,5,6,8-tetraaza-acenaphthylene-2-carbonyl}-amino)-piperidine-1-carboxylic acid tert-butyl ester] |  | 2.19 | 10 | 10 | 7 | 
8 | O=C(Nc1ccc(N2CCOCC2)cc1)c1sc2ncnc3c2c1NC(=O)N3c1ccc2c(ccn2Cc2cccc(F)c2)c1 [Cpd 94, 5-[1-(3-fluoro-benzyl)-1H-indol-5-yl]-4-oxo-4,5-dihydro-3H-1-thia-3,5,6,8-tetraaza-acenaphthylene-2-carboxylic acid (4-morpholin-4-yl-phenyl)-amide] |  | ~10 | 100 | 100 | 3 | 
9 | CCOC(=O)c1sc2ncnc3c2c1NC(=O)N3c1ccc(Oc2ccc(F)cc2)cc1 [Cpd 101, 5-[4-(4-fluoro-phenoxy)-phenyl]-4-oxo-4,5-dihydro-3H-1-thia-3,5,6,8-tetraaza-acenaphthylene-2-carboxylic acid ethyl ester] |  | > 100 | 100 | 100 | 3 | 6
10 | CCOC(=O)c1sc2ncnc3c2c1NC(=O)N3c1ccc(C)c(Br)c1 [Cpd 102, 5-(3-bromo-4-methyl-phenyl)-4-oxo-4,5-dihydro-3H-1-thia-3,5,6,8-tetraaza-acenaphthylene-2-carboxylic acid ethyl ester] |  | > 100 | 100 | 100 | 8 | 13
11 | CCOC(=O)c1sc2ncnc3c2c1NC(=O)N3c1cc(Br)ccc1C [Cpd 103, 5-(5-bromo-2-methyl-phenyl)-4-oxo-4,5-dihydro-3H-1-thia-3,5,6,8-tetraaza-acenaphthylene-2-carboxylic acid ethyl ester] |  | > 100 | 100 | 100 |  | 
12 | Cc1ccc(N2C(=O)Nc3c(C(=O)Nc4ccc(CN5CCOCC5)cc4)sc4ncnc2c34)cc1Br [Cpd 108, 5-(3-bromo-4-methyl-phenyl)-4-oxo-4,5-dihydro-3H-1-thia-3,5,6,8-tetraaza-acenaphthylene-2-carboxylic acid (4-morpholin-4-ylmethyl-phenyl)-amide] |  | 0.148 | 100 | 100 | 69 | 
13 | Cc1ccc(Br)cc1N1C(=O)Nc2c(C(=O)Nc3ccc(CN4CCOCC4)cc3)sc3ncnc1c23 [Cpd 109, 5-(5-bromo-2-methyl-phenyl)-4-oxo-4,5-dihydro-3H-1-thia-3,5,6,8-tetraaza-acenaphthylene-2-carboxylic acid (4-morpholin-4-ylmethyl-phenyl)-amide] |  | 0.684 | 10 | 10 | 75 | 

Other lines, results leading:

Row | inhibition at 1 µM [1] [%] | IC50 [1] [µM] | IC50 [2] [µM] | IC50 [3] [µM] | inhibition at 2 µM [4] [%] | % Inhibition (Lyn) [4] [%] | SMILES
14 |  | 1.37 | 100 | 100 |  |  | O=C(O)c1sc2ncnc3c2c1NC(=O)N3c1ccc2c(ccn2Cc2cccc(F)c2)c1 [Cpd 77, 5-[1-(3-fluoro-benzyl)-1H-indol-5-yl]-4-oxo-4,5-dihydro-3H-1-thia-3,5,6,8-tetraaza-acenaphthylene-2-carboxylic acid]
15 |  | > 100 | 100 | 100 |  |  | CCOC(=O)c1sc2ncnc3c2c1NC(=O)N3c1ccc2c(cnn2Cc2cccc(F)c2)c1 [Cpd 78, 5-[1-(3-fluoro-benzyl)-1H-indazol-5-yl]-4-oxo-4,5-dihydro-3H-1-thia-3,5,6,8-tetraaza-acenaphthylene-2-carboxylic acid ethyl ester]
16 |  | > 10 | 100 | 100 |  |  | O=C(O)c1sc2ncnc3c2c1NC(=O)N3c1ccc2c(cnn2Cc2cccc(F)c2)c1 [Cpd 79, 5-[1-(3-fluoro-benzyl)-1H-indazol-5-yl]-4-oxo-4,5-dihydro-3H-1-thia-3,5,6,8-tetraaza-acenaphthylene-2-carboxylic acid]
17 |  | 0.36 | 4.89 | 4.36 |  |  | CN1CCC(NC(=O)c2sc3ncnc4c3c2NC(=O)N4c2ccc3c(ccn3Cc3cccc(F)c3)c2)CC1 [Cpd 92, 5-[1-(3-fluoro-benzyl)-1H-indol-5-yl]-4-oxo-4,5-dihydro-3H-1-thia-3,5,6,8-tetraaza-acenaphthylene-2-carboxylic acid (1-methyl-piperidin-4-yl)-amide]
18 |  | 0.779 | 10 | 10 | 16 |  | O=C(NCCN1CCOCC1)c1sc2ncnc3c2c1NC(=O)N3c1ccc2c(ccn2Cc2cccc(F)c2)c1 [Cpd 93, 5-[1-(3-fluoro-benzyl)-1H-indol-5-yl]-4-oxo-4,5-dihydro-3H-1-thia-3,5,6,8-tetraaza-acenaphthylene-2-carboxylic acid (2-morpholin-4-yl-ethyl)-amide]
19 |  | 0.35 | 10 | 10 | 18 |  | O=C(NCCCN1CCOCC1)c1sc2ncnc3c2c1NC(=O)N3c1ccc2c(ccn2Cc2cccc(F)c2)c1 [Cpd 95, 5-[1-(3-fluoro-benzyl)-1H-indol-5-yl]-4-oxo-4,5-dihydro-3H-1-thia-3,5,6,8-tetraaza-acenaphthylene-2-carboxylic acid (3-morpholin-4-yl-propyl)-amide]
